Values quoted from earlier work in patent US20190314382A1, “COMPOUNDS AND PHARMACEUTICAL COMPOSITIONS THEREOF FOR THE TREATMENT OF INFLAMMATORY DISEASES” (Galapagos NV, priority 2016, published 2019).

Test system: MRL/lpr mice
Settings: cited from earlier work

**Q.** Which results are given for `N#C/C(=C\c1ccc(O)c(O)c1)C(=O)NCc1ccccc1` [tyrphostin AG490]?
**A.** renal expression of monocyte chemotactic protein (MCP)-1, interferon (IFN)-γ and class II MHC: significantly inhibited; renal infiltration of T cells and macrophages: reduced
